Values quoted from earlier work, collected in patent publication US12496345B2, “Method of treating cancer” (Intensity Therapeutics, Inc., priority 2012, dated 2025).

Tests used:
[1] = not given; remark: listed apart in the source
[2] = not given; remark: listed apart in the source

| oral absorption (in vivo, po) | SMILES | soluble in water [1] | oral bioavailability (carboplatin alone, highly variable) | pH of a 1% solution [2] |
| --- | --- | --- | --- | --- |
| not orally absorbed | O=c1[nH]cc(F)c(=O)[nH]1 [5-FU, fluorouracil] |  |  |  |
|  | N.N.O=C([O-])C1(C(=O)[O-])CCC1.[Pt+2] [Carboplatin, platinum, diammine [1,1-cyclobutane-dicarboxylato (2−)-0,0′]-(SP-4-2)] | approximately 14 mg/mL | approximately 4% | 5-7 |
